Data as given in patent US5317014A, “Peptides and pseudopeptides derived from tachykinin” (priority 1991, dated 1994).
Where a name gives a salt, the structure may show the parent alone.

Experiments:
NK2 receptor = biological target: T1, NK2 receptor (Oryctolagus cuniculus, UniProt P79218); assay: Bio assay on isolated smooth muscle: rabbit pulmonary artery without endothelium; type: cell-based; conditions: antagonistic power, read-out: pA2 NK2 (converted)
T1 construct: three smooth muscle preparations were used; from tissue; host or cells: rabbit pulmonary artery without endothelium (isolated smooth muscle)
T1 sequence (P79218 1-384): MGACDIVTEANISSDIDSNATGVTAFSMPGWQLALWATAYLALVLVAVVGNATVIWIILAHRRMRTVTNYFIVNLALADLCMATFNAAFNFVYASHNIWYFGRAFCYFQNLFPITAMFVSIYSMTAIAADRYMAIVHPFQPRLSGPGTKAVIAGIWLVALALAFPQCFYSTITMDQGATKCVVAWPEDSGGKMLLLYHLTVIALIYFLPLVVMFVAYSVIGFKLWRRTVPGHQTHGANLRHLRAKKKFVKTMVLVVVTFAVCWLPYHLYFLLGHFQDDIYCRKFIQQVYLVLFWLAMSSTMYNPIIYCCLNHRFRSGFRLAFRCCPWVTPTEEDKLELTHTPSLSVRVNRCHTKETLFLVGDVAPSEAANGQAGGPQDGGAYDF
Method: (§1) In order to evaluate the neurokinin antagonistic potential of the compounds of the invention, three smooth muscle preparations were used. Each of these preparations, described as having a good specificity for one type of receptor for neurokinins, was carried out conforming to the following techniques described in the literature:
rabbit pulmonary artery without endothelium for the study of the NK2 receptor according to D. REGOLI et al. (European J. Pharmacol. 125, 37-44, 1985);
(§2) The antagonistic power of the compounds of the invention is expressed in the form of pA2 as defined by O. ARUNLAKSHANA and H. O. SCHILD (Brit. J. Pharmacol., 14, 48-58, 1959).

NK3 receptor = biological target: T2, NK3 receptor (Rattus norvegicus, UniProt P16177); assay: Bio assay on isolated smooth muscle: rat portal vein; type: cell-based; conditions: antagonistic power, read-out: pA2 NK3 (converted)
T2 construct: three smooth muscle preparations were used; from tissue; host or cells: rat portal vein (isolated smooth muscle)
T2 sequence (P16177 1-452): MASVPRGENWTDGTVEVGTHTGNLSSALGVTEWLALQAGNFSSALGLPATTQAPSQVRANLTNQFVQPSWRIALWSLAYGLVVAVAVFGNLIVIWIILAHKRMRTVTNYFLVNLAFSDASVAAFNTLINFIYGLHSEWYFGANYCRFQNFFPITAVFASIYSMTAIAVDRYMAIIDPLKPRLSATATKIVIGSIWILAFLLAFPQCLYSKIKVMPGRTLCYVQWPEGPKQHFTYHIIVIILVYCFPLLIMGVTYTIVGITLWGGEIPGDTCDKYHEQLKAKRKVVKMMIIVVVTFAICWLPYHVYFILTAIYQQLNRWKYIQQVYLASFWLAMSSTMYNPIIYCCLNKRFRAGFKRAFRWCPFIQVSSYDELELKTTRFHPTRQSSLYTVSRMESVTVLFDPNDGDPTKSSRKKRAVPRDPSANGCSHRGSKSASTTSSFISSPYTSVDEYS
Method: as §1
rat portal vein for the study of the NK3 receptor according to D. REGOLI et al. (European J. Pharmacol. 134, 321-326, 1986).
as §2

NK1 receptor = type: cell-based, rabbit; conditions: for pA2 NK1: antagonistic power, rabbit vena cava
Method: as §1
rabbit vena cava for the study of the NK1 receptor according to D. REGOLI et al. (J. Cardiovasc. Pharmacol., in press);
as §2

mouse = assay: Eddy test in the mouse (thermal hyperalgesia, hot plate 55° C.); type: in vivo; conditions: dose increasing the reaction time by 50%; i.v. 5 minutes before heating plate; CD1 male mice
Method: This test consists in measuring the reaction time to heat determined by licking of the forepaws in a mouse (CD1 male, Ch. River, 25-30 g) placed on a metal plate heated to 55° C.
The animals were treated intravenously with the compounds of the invention 5 minutes before passing onto the heating plate.
The mean of the reaction times obtained for each batch treated (12 mice per batch) was compared with the mean of the corresponding control batch.

| Compound | Kb (NK2 receptor) | Kb (NK3 receptor) | pA2 NK1 (NK1 receptor) | Eddy test in the mouse ED50 (mouse) | antagonistic activity with respect to NK1 receptors, compared with NK2 and NK3 (in words) (NK1 receptor; isolated smooth muscle preparations) |
| --- | --- | --- | --- | --- | --- |
| CN(Cc1ccccc1)C(=O)[C@H](Cc1ccccc1)NC(=O)[C@@H](Cc1cn(C=O)c2ccccc12)NC(=O)C[C@@H]1NC(=O)[C@@H]2C3CCC(CC3)N2C1=O [Example 1, Cyclo(Abo--Asp)--trp(CHO)--Phe--N(CH3)CH2 C6 H5] | 13.8 µM | 13.8 µM |  |  |  |
| CN(Cc1ccccc1)C(=O)[C@H](Cc1ccccc1)NC(=O)[C@@H](Cc1cn(C=O)c2ccccc12)NC(=O)C[C@H]1NC(=O)[C@H]2C3CCC(CC3)N2C1=O [Example 5, Cyclo(abo--asp)--trp(CHO)--Phe--N(CH3)CH2 C6 H5] | 2 µM | 13.8 µM |  |  |  |
| CN(Cc1ccccc1)C(=O)[C@H](Cc1ccccc1)NC(=O)[C@@H](Cc1cn(C=O)c2ccccc12)NC(=O)C[C@H]1NC(=O)[C@@H]2Cc3ccccc3CN2C1=O [Example 6, Cyclo(Tic--asp)--trp(CHO)--Phe--N(CH3)CH2 C6 H5] | > 6.76 µM | 13.5 µM | 6.87 |  |  |
| CN(Cc1ccccc1)C(=O)[C@H](Cc1ccccc1)NC(=O)[C@@H](Cc1cn(C=O)c2ccccc12)NC(=O)C[C@@H]1NC(=O)[C@H](Cc2ccccc2)N(C)C1=O [Example 7, Cyclo(MePhe--Asp)--trp(CHO)--Phe--N(CH3)CH2 C6 H5] | 13.5 µM | 13.5 µM | 6.87 |  |  |
| CN(Cc1ccccc1)C(=O)[C@H](Cc1ccccc1)NC(=O)[C@@H](Cc1c[nH]c2ccccc12)NC(=O)C[C@@H]1NC(=O)[C@@H]2C3CCC(CC3)N2C1=O [Example 9, Cyclo(Abo--Asp)--trp--Phe--N(CH3)CH2 C6 H5] | 1 µM |  |  |  |  |
| CN(Cc1ccccc1)C(=O)[C@H](Cc1ccccc1)NC(=O)C[C@@H]1NC(=O)[C@@H]2Cc3ccccc3CN2C1=O [Example 16, Cyclo(Tic--Asp)--Phe--N(CH3)CH2 C6 H5] | 19.1 µM | 19.1 µM | 6.02 |  |  |
| CN(Cc1ccccc1)C(=O)[C@H](Cc1ccccc1)NC(=O)[C@@H]1C2CCC(CC2)N1C(=O)c1c[nH]c2ccccc12 [Example 31, (indol-3-yl) carbonyl--Abo--Phe--N(CH3)CH2 C6 H5] | 13.8 µM | 9.12 µM | 7.34 |  |  |
| CN(Cc1ccccc1)C(=O)[C@H](Cc1ccccc1)NC(=O)[C@@H](Cc1cn(C(=O)CCCCCCN)c2ccccc12)NC(=O)C[C@@H]1NC(=O)[C@@H]2C3CCC(CC3)N2C1=O [Example 38, Cyclo(Abo--Asp)--trp(CO(CH2)6 NH2, HCl)--Phe--N(CH3)CH2 C6 H5] |  |  | 6.70 |  |  |
| CN1CC[C@]23c4c5ccc(O)c4O[C@H]2[C@@H](O)C=C[C@H]3[C@H]1C5 [morphine] |  |  |  | 0.5 mg/kg i.v. |  |
| Cyclo(Tic--asp)--.PSI.(CH2 S)--Phe--N(CH3)CH2 C6 H5 [Example 24] |  |  |  |  | more particularly the case |
